Where two headings read alike, the source gives them in different places.
How the values were obtained:
[1] = target: T1, St-B17 serotonin receptor (Rattus norvegicus, UniProt P31388, L57V); assay: [125I]-LSD competition binding, Cos-7 cell membranes expressing St-B17; design: expressed in transfected cells; host or cells: Cos-7 cells, transient transfection, crude membranes; conditions: for affinity for St-B17 (in words): qualitative statement
Experimental: (§1) This experiment was performed on Cos-7 cell membranes expressing the St-B17 serotonin receptor.

[2] = target: T2, St-B17 serotonin receptor (Rattus norvegicus, UniProt P31388); assay: as above; conditions: read-out: Ki vs. [125I]-LSD, Mean ± SEM
T2 construct: expressed in transfected cells; host or cells: Cos-7 cells, transient transfection, crude membranes
Experimental: as §1

[3] = target: T3, St-B17 stably expressed in HEK-293 cells (Rattus norvegicus, UniProt P31388, L57V); assay: cAMP accumulation in intact HEK-293 cells stably expressing St-B17; type: cell-based
T3 construct: expressed in transfected cells
Experimental: Human Embryonic Kidney cells (HEK 293 available from the ATCC) were stably co-transfected in 150mm dishes by the CaPO4 technique with 30 μg of pSRα-B17 and 3 μg of pMam-neo (INVITROGEN). These HEK 293 cells were then subjected to selection with 600 μg/ml genetecin (G418) (GIBCO). The resistant colonies were collected and screened for receptor expression by [^125I]-LSD binding as described in Example 6.
Intracellular cAMP levels were determined after a 5 minute incubation of intact cells with various test compounds at 37° C. in the presence of the cAMP phosphodiesterase inhibitor RO-20-1724, using a modification of a previously described cAMP assay (Monsma, F. J., Jr., Barton, A. C., and Sibley, D. R. (1990) J. Neurochemistry 54, 1200-1207) wherein the adrenal cAMP binding protein was replaced with 0.8 mg/ml protein kinase A in water.

[4] = target: T1, St-B17 serotonin receptor; assay: [3H]-5-HT competition binding, Cos-7 cell membranes expressing St-B17; design: expressed in transfected cells; host or cells: Cos-7 cells, transient transfection, crude membranes
[5] = test system: adenylyl cyclase activity in the NCB-20 neuroblastoma cell line; conditions: NCB-20 cells, literature; read-out: EC50, activation of adenylyl cyclase; cited from earlier work
[6] = target: T1, St-B17 serotonin receptor; assay: Saturation analysis of [3H]-5-HT binding in transfected Cos-7 cells; design: expressed in transfected cells; host or cells: Cos-7 cells, transient transfection, crude membranes
From the text: The binding of [^3H]-5-HT was similarly not affected by the addition of guanine nucleotides.

[7] = target: T1, St-B17 serotonin receptor
[8] = Ki vs. [125I]-LSD, Mean ± SEM, 0.5 nM [125I]-LSD, Cos-7 membranes, n=3, Cheng-Prussoff from IC50
[9] = 0.5 nM [125I]-LSD, Cos-7 membranes, n=3, Cheng-Prussoff from IC50
[10] = 10 μM final concentration, FIG. 5
[11] = 5 nM [3H]-5-HT, Cos-7 membranes, n=3, Cheng-Prussoff from IC50, read-out: Ki vs. [3H]-5-HT, Mean ± SEM
[12] = read-out: Ki vs. [3H]-5-HT, Mean ± SEM
[13] = screened compounds, radioligand not restated, read-out: inhibition constant (Ki)
[14] = inhibition constant (Ki), screened compounds, radioligand not restated

T2 sequence (P31388 with tags, fused parts or gaps L57V): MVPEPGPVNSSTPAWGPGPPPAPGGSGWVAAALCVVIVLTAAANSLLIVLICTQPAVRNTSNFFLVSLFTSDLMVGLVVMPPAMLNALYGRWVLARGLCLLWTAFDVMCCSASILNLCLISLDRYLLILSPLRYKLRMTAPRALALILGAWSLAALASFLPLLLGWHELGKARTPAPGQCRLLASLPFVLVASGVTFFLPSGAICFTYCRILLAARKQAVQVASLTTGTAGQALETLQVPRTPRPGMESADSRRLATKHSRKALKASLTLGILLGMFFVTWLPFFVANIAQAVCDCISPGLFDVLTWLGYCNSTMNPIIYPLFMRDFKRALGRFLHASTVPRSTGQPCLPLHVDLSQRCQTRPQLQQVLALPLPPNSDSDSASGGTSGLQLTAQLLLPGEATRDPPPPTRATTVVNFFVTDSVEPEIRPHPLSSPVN
T3 sequence (P31388 with tags, fused parts or gaps L57V): as above
T1 sequence (P31388 with tags, fused parts or gaps L57V): as above

With `c1ccc2c(N3CCNCC3)cccc2c1` [1(1-naphthyl)piperazine] the Ki [1, 8] was 104 ± 13.8 nM.
For `CCN(CC)C(=O)[C@@H]1C=C2c3cccc4[nH]c(Br)c(c34)C[C@H]2N(C)C1` [2-Br-LSD], the Ki [2, 9] was 17.1 ± 1.11 nM.
With `COc1ccccc1N1CCNCC1` [2-MPP] the Ki [2, 9] was 3050 ± 321 nM.
For `NCCc1c[nH]c2ccc(OCc3ccccc3)cc12` [5-Benzyloxytryptamine], the Ki [1, 8] was 110 ± 17.9 nM.
In the case of `NCCc1c[nH]c2ccc(C(N)=O)cc12` [5-Carboxamidotryptamine], the “effect on cAMP levels on their own (in words)” value (from here on “effect on cAMP levels”) [3, 10] is reported as “elicit an increase in cAMP levels”, the Ki [2, 9] is reported as 774 ± 84.4 nM and the Ki [4, 11] is reported as 253 ± 20 nM.
In the case of `NCCc1c[nH]c2ccc(O)cc12` [5-HT, 5-hydroxytryptamine], the EC50 [3] is listed as 145 nM, the EC50 [5] is listed as 300 nM and the Ki [2, 9] is listed as 151 ± 12.8 nM. For the same molecule, the “influence of guanine nucleotide analogue GppNHp on affinity” value ([1]; addition of GppNHp) was “not influenced” and the “Hill coefficient for the competition curve” value ([1]; vs. [125I]-LSD) was “not significantly different from unity”.
Work on `CNCCc1c[nH]c2ccc(O)cc12` [5-Hydroxy-N,ω-methyltryptamine] yielded a Ki [2, 9] of 58 ± 8.32 nM.
In the case of `COc1ccc2[nH]cc(CCN)c2c1` [5-methoxytryptamine], the “effect on cAMP levels” value [3, 10] is reported as “elicit an increase in cAMP levels” and the Ki [1, 8] is reported as 38.9 ± 3.95 nM.
For `CCCN(CCC)C1CCc2cccc(O)c2C1` (centres unmarked) [8-OH-DPAT], the “affinity for St-B17 (in words)” value [1] was “relatively low affinity”.
With `CN(C)CCC=C1c2ccccc2CCc2ccccc21` [Amitriptyline] the Ki [2, 9] was 69.6 ± 7.21 nM and the Ki [4, 12] was 82 ± 6 nM.
For `Clc1ccc2c(c1)C(N1CCNCC1)=Nc1ccccc1O2` [Amoxipine], the “effect on cAMP levels” value [3, 10] was “no significant effect on cAMP levels”, the “effect on the cAMP response elicited by 5-HT (in words)” value [3, 10] was “substantially inhibit the response elicited by 5-HT” and the “functional classification at St-B17 receptor” value [3, 10] was “antagonists”. For the same molecule, the Ki [2, 9] was 30.4 ± 1.64 nM.
For `COc1cc(N)c(Cl)cc1C(=O)NC1CCN2CCCC1C2` (centres unmarked) [BRL 24924], the Ki [1, 13] was > 10000 nM.
For `CN1C2CCCC1CC(NC(=O)c1nn(C)c3ccccc13)C2` (centres unmarked) [BRL 43694A], the Ki [1, 13] was > 10000 nM.
For `CN1CCN(c2nc3cc(C(F)(F)F)ccc3n3cccc23)CC1.O=C(O)/C=C\C(=O)O.O=C(O)/C=C\C(=O)O` [CGS 12066B], the Ki [2, 9] was 738 ± 66.6 nM and the “affinity for St-B17 (in words)” value [1] was “relatively low affinity”.
In the case of `CC(C)C[C@H]1C(=O)N2CCC[C@H]2[C@]2(O)O[C@](NC(=O)[C@@H]3C[C@@H]4c5cccc6[nH]cc(c56)C[C@H]4N(C)C3)(C(C)C)C(=O)N12` [Dihydroergocryptine], the Ki [1, 8] is reported as 161 ± 13.2 nM.
In the case of `CN1C[C@H](C(=O)N[C@]2(C)O[C@@]3(O)[C@@H]4CCCN4C(=O)[C@H](Cc4ccccc4)N3C2=O)C[C@@H]2c3cccc4[nH]cc(c34)C[C@H]21` [Dihydroergotamine], the “effect on cAMP levels” value [3, 10] is reported as “stimulate cAMP accumulation”, the “functional classification at St-B17 receptor” value [3, 10] is reported as “partial agonists” and the Ki [4] is reported as 5.4 ± 5.4 nM. For the same molecule, the Ki [1, 8] was 13.1 ± 0.9 nM.
With `CN1[C@@H]2CC[C@H]1C[C@@H](OC(=O)c1c[nH]c3ccccc13)C2` [ICS 205,930] the “affinity for St-B17 (in words)” value [1] was “virtually no affinity”.
With `CN1C[C@H](CC#N)C[C@@H]2c3cccc4[nH]c(Cl)c(c34)C[C@H]21` [Lergotrile] the Ki [2] was 36.5 ± 1.04 nM.
`CN1CCN(C2=Nc3ccccc3Oc3ccc(Cl)cc32)CC1` [Loxapine] gave a Ki [2, 9] of 64.75 ± 0.6 nM and a Ki [4, 12] of 56 ± 1.5 nM.
For `CN1[C@@H]2CC[C@H]1C[C@@H](OC(=O)c1cc(Cl)cc(Cl)c1)C2` [MDL 72222], the “affinity for St-B17 (in words)” value [1] was “virtually no affinity” and the Ki [1, 13] was > 10000 nM.
For `CN1C[C@@H](NS(=O)(=O)N(C)C)C[C@@H]2c3cccc4c3c(cn4C)C[C@H]21` [Mesulergine], the Ki [2, 9] was 1720 ± 248 nM.
With `CN1C[C@H](CNC(=O)OCc2ccccc2)C[C@@H]2c3cccc4c3c(cn4C)C[C@H]21` [Metergoline] the Ki [2, 9] was 30 ± 0.38 nM and the Ki [4, 12] was 61 ± 23 nM.
With `CC[C@@H](CO)NC(=O)[C@@H]1C=C2c3cccc4c3c(cn4C)C[C@H]2N(C)C1` [MethyscrGide] the Ki [2, 9] was 372 ± 72.7 nM.
`COc1ccc2[nH]cc(CCN(C)C)c2c1` [N,N-Dimethyl-5-methoxytryptamine] showed a Ki [1, 8] of 79.8 ± 3.86 nM.
For `COc1ccccc1N1CCN(CCCCN2C(=O)c3ccccc3C2=O)CC1` [NAN-190], the Ki [1, 14] was > 10000 nM.
Molecule `CNCCC=C1c2ccccc2CCc2ccccc21` [Nortriptyline] has a Ki [2, 9] of 147 ± 2.61 nM.
`Nc1ccc(CCN2CCN(c3cccc(C(F)(F)F)c3)CC2)cc1` [PAPP] gave a Ki [2, 9] of 806 ± 75.2 nM.
With `CCCN1C[C@H](CSC)C[C@@H]2c3cccc4[nH]cc(c34)C[C@H]21` [Pergolide] the Ki [2, 9] was 29.9 ± 7.31 nM and the “affinity for St-B17 (in words)” value [1] was “relatively high affinity”.
Molecule `Cc1nc2sccn2c(=O)c1CCN1CCC(=C(c2ccc(F)cc2)c2ccc(F)cc2)CC1` [Ritanerin] has a Ki [2, 9] of 44.1 ± 4.35 nM and a Ki [4, 11] of 16 ± 2 nM.
For `FC(F)(F)c1cccc(N2CCNCC2)c1` [TFMPP], the Ki [1, 8] was 482 ± 37.2 nM.
With `NCCc1c[nH]c2ccc(O)cc12` [[^3H]-5-HT] the Bmax ([6]; [3H]-5-HT saturation binding) was 1-3 pMoles/mg protein, the Kd ([6]; [3H]-5-HT saturation binding, n=3) was 37 nM and the “effect of guanine nucleotides on binding” value ([6]; addition of guanine nucleotides) was “not affected”.
For `CCN(CC)C(=O)[C@@H]1C=C2c3cccc4[nH]c(I)c(c34)C[C@H]2N(C)C1` [[^125I]-LSD, lysergic acid diethylamide], the Kd ([7]; KD, representative experiment (FIG. 1, scatchard analysis), single representative experiment) was 1.5 nM, the Kd ([7]; dissociation constant (KD), [125I]-LSD saturation binding, Cos-7 membranes, mean n=3) was 1.26 nM and the “maximum binding (Bmax)” value ([7]; range over experiments) was 2-5 pMoles/mg protein. The “Bmax, representative experiment (FIG. 1)” value ([7]; single representative experiment) was 3.4 pMoles mg protein^−1 and the “affinity for St-B17 (in words)” value [1] was “relatively high affinity”.
In the case of `CN(C)CCCC1(c2ccc(F)cc2)OCc2cc(C#N)ccc21` (centres unmarked) [citalopram], the Ki [1, 14] is reported as > 10000 nM.
With `NCCc1ccc(O)c(O)c1` [dopamine] the Ki [1, 13] was > 10000 nM.
For `CNC[C@H](O)c1ccc(O)c(O)c1` [epinephrine], the Ki [1, 13] was > 10000 nM.
In the case of `CCNC(C)Cc1cccc(C(F)(F)F)c1` (centres unmarked) [fenfluramine], the Ki [1, 14] is reported as > 10000 nM.
In the case of `NCCc1c[nH]cn1` [histamine], the Ki [1, 13] is reported as > 10000 nM.
In the case of `c1ccc2c(c1)OCC(C1=NCCN1)O2` (centres unmarked) [idazoxan], the Ki [1, 13] is reported as > 10000 nM.
In the case of `O=C(c1ccc(F)cc1)C1CCN(CCn2c(=O)[nH]c3ccccc3c2=O)CC1` [ketanserin], the “affinity for St-B17 (in words)” value [1] is reported as “relatively low affinity” and the Ki [1, 13] is reported as > 10000 nM.
For `Clc1cccc(N2CCNCC2)c1` [mCPP], the Ki [2, 9] was 2310 ± 343 nM.
In the case of `COc1ccc2[nH]cc(CCNC(C)=O)c2c1` [melatonin], the Ki [1, 13] is reported as > 10000 nM.
In the case of `NC[C@H](O)c1ccc(O)c(O)c1` [norepinephrine], the Ki [1, 13] is reported as > 10000 nM.
For `NCC(O)c1ccc(O)cc1` (centres unmarked) [octopamine], the Ki [1, 13] was > 10000 nM.
With `Fc1ccc([C@@H]2CCNC[C@H]2COc2ccc3c(c2)OCO3)cc1` [paroxetine] the Ki [1, 14] was > 10000 nM.
With `CC(C)NCC(O)COc1cccc2[nH]ccc12` (centres unmarked) [pindolol] the Ki [1, 13] was > 10000 nM.
In the case of `O=C(CCCN1CCC2(CC1)C(=O)NCN2c1ccccc1)c1ccc(F)cc1` [spiroperidol], the Ki [1, 13] is reported as > 10000 nM.
In the case of `NCCc1ccc(O)cc1` [tyramine], the Ki [1, 13] is reported as > 10000 nM.
For `COc1cc(N)c(Cl)cc1C(=O)NC1CN2CCC1CC2` (centres unmarked) [zacopride], the Ki [1, 13] was > 10000 nM.
With `CN(C)C/C=C(/c1ccc(Br)cc1)c1cccnc1` [zimelidine] the Ki [1, 13] was > 10000 nM.
N,ω-Methyltryptamine gave a Ki [2, 9] of 342 ± 32.2 nM.

From patent publication US6844190B2, “St-B17 serotonin receptor” (The United States of America as represented by the …, priority 1992, dated 2005)
